Reference: patent US20240226233A1, “COMPOSITION COMPRISING ZAG-DERIVED PEPTIDE FOR IMPROVING SCARS AND KELOIDS” (L&C BIO CO., LTD., priority 2021, published 2024)

B1: zinc-alpha-2-glycoprotein (ZAG) protein (protein, listed as Homo sapiens)
chain: MVRMVPVLLSLLLLLGPAVPQENQDGRYSLTYIYTGLSKHVEDVPAFQALGSLNDLQFFRYNSKDRKSQPMGLWRQVEGMEDWKQDSQLQKAREDIFMETLKDIVEYYNDSNGSHVLQGRFGCEIENNRSSGAFWKYYYDGKDYIEFNKEIPAWVPFDPAAQITKQKWEAEPVYVQRAKAYLEEECPATLRKYLKYSKNILDRQDPPSVVVTSHQAPGEKKKLKCLAYDFYPGKIDVHWTRAGEVQEPELRGDVLHNGNGTYQSWVVVAVPPQDTAPYSCHVQHSSLAQPLVVPWEAS

Key:
[1] = tested on: collagen I, III, TGF-β, pSMAD2/3; assay: RNA (PCR) and protein (Western blotting) expression in scratched, TGF-β-treated HDFs; assay type: cell-based, human; conditions: HDF, TGF-β + peptide vs TGF-β-treated group; for mRNA expression of collagen I, III, and TGF-β: PCR; for protein expression of collagen I, III, TGF-β, and pSMAD2/3: Western blotting
Experimental: (§1) HDFs and KFs were seeded in a 6-well plate. After 24 hours, the center of each well was scratched to create a wound. Thereafter, the HDF test group was treated with 10 ng/mL of TGF-β, which is overexpressed during scar formation, to create a scar environment, and then treated with the selected Z16 peptide. The migration of cells in the affected area was confirmed 24 hours later.
(§2) Cells were treated with Z16 under the same conditions as in Example 2-1, and the expression of RNA and proteins involved in the formation of hypertrophic scars or keloids was analyzed. The expression was confirmed through PCR and Western blotting.
(§3) HDFs and KFs were seeded in a 6-well plate. After 24 hours, the center of each well was scratched to create a wound generation model. Thereafter, the HDF test group was treated with 10 ng/mL of TGF-β, which is overexpressed during scar formation, to create a scarring environment, and then treated with Z15mer_1 to Z15mer_4 additionally synthesized in Preparation Example 2. The migration of cells in the affected area was confirmed 24 hours later.
(§4) Cells were treated with Z16 under the same conditions as in Example 3-1, and the expression of RNA and proteins involved in the formation of hypertrophic scars or keloids was analyzed. The expression was confirmed through PCR and Western blotting.

HDFs = assay: Scratch assay, cell migration of HDFs in TGF-β scar environment; assay type: cell-based, human; conditions: HDF scratched, 10 ng/mL TGF-β, 24 hours, compared to TGF-β-treated group
Experimental: as §1, §3

keloid fibroblasts (KFs) = assay: CCK-8 assay, cell proliferation of KFs; assay type: cell-based; conditions: KF, 10 μg/mL, compared to untreated negative control / other candidates
Experimental: (§5) A CCK-8 assay was performed to select amino acid sequences corresponding to the core active region of ZAG, which has an inhibitory effect on the formation of scars, among the 18 peptide candidates. Human dermal fibroblasts (HDFs) and keloid fibroblasts (KFs) were treated with the ZAG protein-derived peptide candidates (Z1 to Z18) and the ZAG protein (ZAG) at a concentration of 10 μg/mL, and cell proliferation was then confirmed using a CCK-8 assay. A group treated with the ZAG protein alone was used as a positive control, and an untreated group was used as a negative control.
(§6) Specifically, HDFs and KFs were treated with the ZAG protein (ZAG), Z16, and the ZAG protein-derived peptide candidates (Z15mer_1 to Z15mer_4) additionally synthesized in Preparation Example 2 at a concentration of 10 μg/mL, and cell proliferation was then confirmed through a CCK-8 assay.

KFs = assay: Scratch assay, cell migration of KFs; assay type: cell-based; conditions: KF scratched, general medium, 24 hours
Experimental: as §1, §3

[2] = tested on: collagen I, III, TGF-β, pSMAD2/3; assay: RNA (PCR) and protein (Western blotting) expression in scratched KFs; assay type: cell-based; conditions: KF, vs untreated negative control; for mRNA expression of collagen I, III, and TGF-β: PCR; for protein expression of collagen I, III, TGF-β, and pSMAD2/3: Western blotting
Experimental: as §1, §2, §3, §4

[3] = tested on: hypertrophic scars or keloids; assay: Overall inhibitory effect on formation of hypertrophic scars or keloids (HDF/KF tests); assay type: cell-based; conditions: compared with ZAG16, scratch assay HDF and KF
Experimental: as §5, §3

[4] = tested on: human dermal fibroblasts (HDFs); assay: CCK-8 assay, cell proliferation of HDFs; assay type: cell-based; conditions: HDF, 10 μg/mL, compared to untreated negative control / other candidates
Experimental: as §5, §6

Row | Molecule | mRNA expression of collagen I, III, and TGF-β [1] | protein expression of collagen I, III, TGF-β, and pSMAD2/3 [1] | migration of cells in the affected area (HDFs) | cell proliferation (CCK-8) (keloid fibroblasts (KFs)) | migration of cells in the affected area (KFs) | mRNA expression of collagen I, III, and TGF-β [2] | protein expression of collagen I, III, TGF-β, and pSMAD2/3 [2] | inhibition of the formation of hypertrophic scars and keloids [3] | cell proliferation (CCK-8) [4]
1 | APGEKKKLKCLAYDF (ZAG protein-derived peptide) [Peptide Z15mer_1] | decreased | decreased | greatest inhibition of cell migration | lowest proliferation | greatest inhibition of cell migration | decreased | decreased | more effectively than ZAG16 | lowest proliferation
2 | APGEKKKLKCLAYDFYPGKIDVHWTRAGEV (ZAG protein-derived peptide) [Peptide Z16] | decreased | decreased | inhibited | lowest cell proliferation | inhibited | decreased | decreased | – | lowest cell proliferation
3 | B1 | – | – | – | decreased cell proliferation | – | – | – | – | decreased cell proliferation
